This experiment has as its system CD2F1 mice, L1210 leukemia ip, survival T/C. As to the kind of experiment: NCI In Vivo Anticancer Drug Screen. Data for tumor model L1210 Leukemia (intraperitoneal) in CD2F1 (CDF1) mice. Conditions: higher = longer survival. The gist of the method: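 Activity against a transplanted murine tumor was judged by comparing the compound group with a vehicle group. The outcome in the treated animals was divided by that in the controls.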

[1] abbreviates: endpoint: mean survival time, dose: 100.0 mg/kg/injection, schedule: Q04DX003 (ip), vehicle: saline with Tween-80.
Setting [2] is: endpoint: mean survival time, dose: 400.0 mg/kg/injection, schedule: Q04DX003 (ip), vehicle: saline with Tween-80.
Where [3] appears, read: endpoint: mean survival time, dose: 12.5 mg/kg/injection, schedule: Q01DX005 (ip), vehicle: distilled water + Tween-80.
Setting [4] is: endpoint: mean survival time, dose: 25.0 mg/kg/injection, schedule: Q01DX005 (ip), vehicle: distilled water + Tween-80.
The mark [5] stands for this setting: endpoint: mean survival time, dose: 50.0 mg/kg/injection, schedule: Q01DX005 (ip), vehicle: distilled water + Tween-80.
[6] abbreviates: endpoint: mean survival time, dose: 100.0 mg/kg/injection, schedule: Q01DX005 (ip), vehicle: distilled water + Tween-80.
Setting [7] is: endpoint: mean survival time, dose: 200.0 mg/kg/injection, schedule: Q01DX005 (ip), vehicle: distilled water + Tween-80.
Setting [8] is: endpoint: mean survival time, dose: 100.0 mg/kg/injection, schedule: Q01DX009 (ip), vehicle: saline with Tween-80.
[9] abbreviates: endpoint: mean survival time, dose: 200.0 mg/kg/injection, schedule: Q01DX009 (ip), vehicle: saline with Tween-80.
[10] abbreviates: endpoint: mean survival time, dose: 400.0 mg/kg/injection, schedule: Q01DX009 (ip), vehicle: saline with Tween-80.
The mark [11] stands for this setting: endpoint: mean survival time, dose: 200.0 mg/kg/injection, schedule: Q04DX003 (ip), vehicle: saline with Tween-80.
The mark [12] stands for this setting: endpoint: mean survival time, dose: 100.0 mg/kg/injection, schedule: Q04DX003 (ip), vehicle: saline.
Setting [13] is: endpoint: mean survival time, dose: 200.0 mg/kg/injection, schedule: Q04DX003 (ip), vehicle: saline.
[14] abbreviates: endpoint: mean survival time, dose: 50.0 mg/kg/injection, schedule: Q01DX009 (ip), vehicle: Klucel (hydroxypropylcellulose) (HPC).
[15] abbreviates: endpoint: mean survival time, dose: 100.0 mg/kg/injection, schedule: Q01DX009 (ip), vehicle: Klucel (hydroxypropylcellulose) (HPC).
Setting [16] is: endpoint: mean survival time, dose: 200.0 mg/kg/injection, schedule: Q01DX009 (ip), vehicle: Klucel (hydroxypropylcellulose) (HPC).
Where [17] appears, read: endpoint: mean survival time, dose: 100.0 mg/kg/injection, schedule: Q01DX001 (ip), vehicle: saline.
The mark [18] stands for this setting: endpoint: mean survival time, dose: 200.0 mg/kg/injection, schedule: Q01DX001 (ip), vehicle: saline.
Where [19] appears, read: endpoint: mean survival time, dose: 400.0 mg/kg/injection, schedule: Q01DX001 (ip), vehicle: saline.

Where “and” joins values, the source holds several entries; their conditions need not be identical. Equal values may be shown once. Toxic doses and inconclusive results are not listed.

Consider `NCCc1ccncc1`, for which the T/C by setting is: (endpoint: mean survival time, dose: 100.0 mg/kg/injection, schedule: Q04DX002 (ip), vehicle: saline) 92 % of control; (endpoint: mean survival time, dose: 200.0 mg/kg/injection, schedule: Q04DX002 (ip), vehicle: saline) 92 % of control; (endpoint: mean survival time, dose: 400.0 mg/kg/injection, schedule: Q04DX002 (ip), vehicle: saline) 111 % of control.
Take `CC1CCCNC1` (configuration not stated): the T/C runs as follows: under setting [1], 97 % of control; under setting [2], 93 % of control.
Take `CC(=O)Cc1cc(=O)n(C2OC(COC(=O)c3ccccc3)C(OC(=O)c3ccccc3)C2OC(=O)c2ccccc2)c(=O)[nH]1` (configuration not stated): the T/C runs as follows: under setting [3], 97 % of control; under setting [4], 97 % of control; under setting [5], 105 % of control; under setting [6], 95 % of control; under setting [7], 100 % of control.
As to `CC(=O)C(=O)C1=C2CCCN2CCc2cc3c(cc21)OCO3`, the T/C is, setting by setting: (endpoint: mean survival time, dose: 12.5 mg/kg/injection, schedule: Q01DX009 (ip), vehicle: water) 96 % of control; (endpoint: mean survival time, dose: 25.0 mg/kg/injection, schedule: Q01DX009 (ip), vehicle: water) 94 % of control; (endpoint: mean survival time, dose: 50.0 mg/kg/injection, schedule: Q01DX009 (ip), vehicle: water) 91 % of control; (endpoint: mean survival time, dose: 100.0 mg/kg/injection, schedule: Q01DX009 (ip), vehicle: water) 96 % of control.
As for `COC(=O)c1ccccc1NC(=S)NC(=O)COc1ccccc1`, the T/C was 97 % of control under setting [8], 95 % of control under setting [9] and 98 % of control under setting [10].
As for `O=[N+]([O-])c1ccc(N=Nc2ccccc2)cc1`, the T/C by setting is: under setting [1], 90 % of control; under setting [11], 92 % of control; under setting [2], 92 % of control.
Take `[Cl][Pt+2]([Cl])([Cl])[Cl].[NH-]CC1(C[NH-])CCCC1`: the T/C is 171 % of control and 174 % of control (endpoint: median survival time, dose: 3.12 mg/kg/injection, schedule: Q04DX003 (ip), vehicle: saline); 174 % of control and 217 % of control (endpoint: median survival time, dose: 6.25 mg/kg/injection, schedule: Q04DX003 (ip), vehicle: saline); 280 % of control and 109 % of control (endpoint: median survival time, dose: 12.5 mg/kg/injection, schedule: Q04DX003 (ip), vehicle: saline); 174 % of control (endpoint: median survival time, dose: 25.0 mg/kg/injection, schedule: Q04DX003 (ip), vehicle: saline).
Consider `COc1ccc(NC(=O)Nc2ccc(F)cc2)cc1`, for which the T/C was 101 % of control under setting [1], 96 % of control under setting [11] and 102 % of control under setting [2].
With `CCOC(=O)N(CCCl)C(=O)C(C)C`, the T/C was 95 % of control under setting [12]; 92 % of control under setting [13]; 97 % of control (endpoint: mean survival time, dose: 400.0 mg/kg/injection, schedule: Q04DX003 (ip), vehicle: saline).
Take `O=C(CC(O)(C(F)(F)F)C(F)(F)F)c1ccc(F)cc1`: the T/C (endpoint: mean survival time, dose: 100.0 mg/kg/injection, schedule: Q01DX009 (ip), vehicle: other) is 98 % of control; the T/C (endpoint: mean survival time, dose: 200.0 mg/kg/injection, schedule: Q01DX009 (ip), vehicle: other) is 98 % of control; the T/C (endpoint: mean survival time, dose: 400.0 mg/kg/injection, schedule: Q01DX009 (ip), vehicle: other) was 98 % of control.
For `Cc1ccc([N+](=O)[O-])cc1NC(=O)Nc1c(C)n(C)n(-c2ccccc2)c1=O`, the T/C reads like this: under setting [14], 93 % of control; under setting [15], 89 % of control; under setting [16], 93 % of control.
On to `CN(C)c1ccc(-c2nc3ccccc3s2)cc1`, for which the T/C reads like this: under setting [14], 106 % of control; under setting [15], 96 % of control; under setting [16], 98 % of control.
On to `O=C1OCC2C(=O)OCC12` (configuration not stated), for which the T/C (endpoint: mean survival time, dose: 50.0 mg/kg/injection, schedule: Q01DX001 (ip), vehicle: saline) was 107 % of control; the T/C under setting [17] is 101 % of control; the T/C under setting [18] is 107 % of control; the T/C under setting [19] was 109 % of control.
In the case of `CCC[CH2][Sn]1([CH2]CCC)[O]C2C(CO)OC(n3cnc4c(N)ncnc43)C2[O]1` (configuration not stated), the T/C (endpoint: mean survival time, dose: 0.2 mg/kg/injection, schedule: Q01DX005 (ip), vehicle: other) was 107 % of control; the T/C (endpoint: mean survival time, dose: 0.39 mg/kg/injection, schedule: Q01DX005 (ip), vehicle: other) is 104 % of control; the T/C (endpoint: mean survival time, dose: 0.78 mg/kg/injection, schedule: Q01DX005 (ip), vehicle: other) is 104 % of control; the T/C (endpoint: mean survival time, dose: 1.56 mg/kg/injection, schedule: Q01DX005 (ip), vehicle: other) was 102 % of control and 107 % of control; the T/C (endpoint: mean survival time, dose: 3.13 mg/kg/injection, schedule: Q01DX005 (ip), vehicle: other) was 103 % of control and 110 % of control.
For `CC1(C)OC2C(/C=C3/CC(=O)NC3=O)OC(n3ccc(=O)[nH]c3=O)C2O1` (configuration not stated), the T/C is, setting by setting: under setting [3], 100 % of control; under setting [4], 100 % of control; under setting [5], 103 % of control; under setting [6], 100 % of control; under setting [7], 103 % of control.
Regarding `Nc1ccc2ccccc2c1N=Nc1ccc(C(O)C(N)CO)cc1` (configuration not stated), the T/C is, setting by setting: (endpoint: mean survival time, dose: 6.25 mg/kg/injection, schedule: Q04DX003 (ip), vehicle: saline with Tween-80) 100 % of control; (endpoint: mean survival time, dose: 12.5 mg/kg/injection, schedule: Q04DX003 (ip), vehicle: saline with Tween-80) 96 % of control; (endpoint: mean survival time, dose: 25.0 mg/kg/injection, schedule: Q04DX003 (ip), vehicle: saline with Tween-80) 94 % of control.
Take `CNC1(C(=O)c2ccccc2)CC2CCC1C2` (configuration not stated): the T/C under setting [17] was 95 % of control, the T/C under setting [18] was 96 % of control and the T/C under setting [19] is 98 % of control.
In the case of `O=C(c1ccccc1)C(Br)C(Br)c1ccccc1` (configuration not stated), the T/C reads like this: under setting [8], 93 % of control; under setting [1], 94 % of control; (endpoint: mean survival time, dose: 200.0 mg/kg/injection, schedule: Q01DX001 (ip), vehicle: saline with Tween-80) 91 % of control; under setting [9], 106 % of control; under setting [11], 90 % of control; (endpoint: mean survival time, dose: 400.0 mg/kg/injection, schedule: Q01DX001 (ip), vehicle: saline with Tween-80) 94 % of control. Moreover, the T/C is 95 % of control under setting [10] and 92 % of control under setting [2].
Take `O=C(Nc1cccnc1)c1ccccc1`: the T/C (endpoint: mean survival time, dose: 6.25 mg/kg/injection, schedule: Q01DX009 (ip), vehicle: saline with Tween-80) is 102 % of control; the T/C (endpoint: mean survival time, dose: 12.5 mg/kg/injection, schedule: Q01DX009 (ip), vehicle: saline with Tween-80) is 102 % of control; the T/C (endpoint: mean survival time, dose: 25.0 mg/kg/injection, schedule: Q01DX009 (ip), vehicle: saline with Tween-80) was 113 % of control.
`CC(N)C(=O)NC(C(=O)O)C(C)O` (configuration not stated): the T/C runs as follows: (endpoint: mean survival time, dose: 25.0 mg/kg/injection, schedule: Q01DX009 (ip), vehicle: saline) 102 % of control; (endpoint: mean survival time, dose: 50.0 mg/kg/injection, schedule: Q01DX009 (ip), vehicle: saline) 103 % of control; (endpoint: mean survival time, dose: 100.0 mg/kg/injection, schedule: Q01DX009 (ip), vehicle: saline) 105 % of control; (endpoint: mean survival time, dose: 200.0 mg/kg/injection, schedule: Q01DX009 (ip), vehicle: saline) 98 % of control; (endpoint: mean survival time, dose: 400.0 mg/kg/injection, schedule: Q01DX009 (ip), vehicle: saline) 98 % of control.
For the molecule `Cc1cc(=O)[nH]c(=S)[nH]1.[Pd]`, the T/C by setting is: (endpoint: mean survival time, dose: 3.12 mg/kg/injection, schedule: Q04DX003 (ip), vehicle: saline) 103 % of control; (endpoint: mean survival time, dose: 6.25 mg/kg/injection, schedule: Q04DX003 (ip), vehicle: saline) 108 % of control; (endpoint: mean survival time, dose: 12.5 mg/kg/injection, schedule: Q04DX003 (ip), vehicle: saline) 105 % of control; (endpoint: mean survival time, dose: 25.0 mg/kg/injection, schedule: Q04DX003 (ip), vehicle: saline) 100 % of control; (endpoint: mean survival time, dose: 50.0 mg/kg/injection, schedule: Q04DX003 (ip), vehicle: saline) 102 % of control; under setting [12], 102 % of control. The T/C under setting [13] was 100 % of control.

The values are drawn from PubChem BioAssay AID256 (DTP/NCI, 2004).
